Test results published in PubChem BioAssay (NCI).
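Compound exposure: 48 hours, 5 concentrations, 96-well plates. The concentration for 50% growth inhibition is given as GI50. TGI: total growth inhibition.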

What was measured:
Test in all cases: NCI anticancer screen, dose series, 48 h
MCF7 breast = system: MCF7 breast
MALME-3M melanoma = system: MALME-3M melanoma
M14 melanoma = system: M14 melanoma
A498 renal = system: A498 renal
RXF 393 renal = system: RXF 393 renal
SR leukemia = system: SR leukemia
HOP-62 NSCLC = system: HOP-62 NSCLC
NCI-H522 lung = system: NCI-H522 lung
SNB-78 CNS = system: SNB-78 CNS
HOP-92 NSCLC = system: HOP-92 NSCLC
DLD-1 colon = system: DLD-1 colon
ACHN renal = system: ACHN renal

Q: Which results are given for `CC(C)(C)[Si](C)(C)OCC1OC(n2cnc3c(N)ncnc32)CC1O` (stereo not given)?
A: TGI (MCF7 breast): > 100 µM; TGI (MALME-3M melanoma): > 100 µM; TGI (M14 melanoma): > 100 µM; TGI (A498 renal): > 100 µM; TGI (RXF 393 renal): > 100 µM; TGI (SR leukemia): > 100 µM; TGI (HOP-62 NSCLC): > 100 µM

Q: `c1coc(CNc2ncnc3[nH]ncc23)c1` was tested. Which TGI (MALME-3M melanoma) did it give?
A: The TGI was > 100 µM.

Q: What about the TGI (NCI-H522 lung) of the same compound?
A: The TGI was > 100 µM.

Q: And the TGI (M14 melanoma)?
A: Its TGI is > 100 µM.

Q: What about the TGI (SNB-78 CNS) of the same compound?
A: Its TGI is > 100 µM.

Q: And the TGI (A498 renal)?
A: Its TGI is > 100 µM.

Q: And the TGI (HOP-92 NSCLC)?
A: The TGI was > 100 µM.

Q: What about the TGI (DLD-1 colon) of the same compound?
A: The TGI was > 100 µM.

Q: And the TGI (RXF 393 renal)?
A: Its TGI is > 100 µM.

Q: What about the TGI (SR leukemia) of the same compound?
A: The TGI was > 100 µM.

Q: And the TGI (HOP-62 NSCLC)?
A: Its TGI is > 100 µM.

Q: And the TGI (ACHN renal)?
A: The TGI was > 100 µM.

Q: Which TGI (MALME-3M melanoma) does the source give for `O=C1NC2=C(CCCC/C2=N\O)C12CCCCC2` here?
A: The TGI was > 100 µM.

Q: What about the TGI (M14 melanoma) of the same compound?
A: Its TGI is > 100 µM.

Q: And the TGI (SNB-78 CNS)?
A: Its TGI is > 100 µM.

Q: What about the TGI (A498 renal) of the same compound?
A: Its TGI is > 100 µM.

Q: What about the TGI (DLD-1 colon) of the same compound?
A: Its TGI is > 100 µM.

Q: What about the TGI (RXF 393 renal) of the same compound?
A: The TGI was > 100 µM.

Q: And the TGI (SR leukemia)?
A: Its TGI is > 100 µM.

Q: And the TGI (HOP-62 NSCLC)?
A: Its TGI is > 100 µM.

Q: And the TGI (ACHN renal)?
A: The TGI was > 100 µM.

Q: What does the source list for `Brc1ccc(C2CC(c3cccc4ccccc34)=Nc3ccccc3S2)cc1` (stereo not given)?
A: TGI (NCI-H522 lung): > 100 µM; TGI (M14 melanoma): > 100 µM; TGI (SNB-78 CNS): > 100 µM; TGI (A498 renal): > 100 µM; TGI (HOP-92 NSCLC): > 100 µM; TGI (DLD-1 colon): > 100 µM; TGI (RXF 393 renal): > 100 µM; TGI (SR leukemia): > 100 µM; TGI (HOP-62 NSCLC): > 100 µM; TGI (ACHN renal): > 100 µM

Q: What does the source list for `O=C1CSC(=S)N1`?
A: TGI (MCF7 breast): > 100 µM; TGI (MALME-3M melanoma): > 100 µM; TGI (NCI-H522 lung): > 100 µM; TGI (M14 melanoma): > 100 µM; TGI (HOP-92 NSCLC): > 100 µM; TGI (SR leukemia): > 100 µM; TGI (HOP-62 NSCLC): > 100 µM; TGI (ACHN renal): > 100 µM

Q: For `CC(=O)c1ccc2c(c1)c1c(C)c3c[n+](C)ccc3c(C)c1n2C`, which TGI (MCF7 breast) is on record?
A: The TGI was > 29 µM.

Q: And the TGI (MALME-3M melanoma)?
A: Its TGI is 33.7 µM.

Q: And the TGI (NCI-H522 lung)?
A: The TGI was > 100 µM.

Q: What about the TGI (SNB-78 CNS) of the same compound?
A: The TGI was 35.3 µM.

Q: What about the TGI (A498 renal) of the same compound?
A: The TGI was 46.5 µM.

Q: What about the TGI (HOP-92 NSCLC) of the same compound?
A: Its TGI is 69.2 µM.

Q: And the TGI (DLD-1 colon)?
A: The TGI was > 100 µM.

Q: And the TGI (RXF 393 renal)?
A: The TGI was 42.8 µM.

Q: And the TGI (HOP-62 NSCLC)?
A: Its TGI is 38.2 µM.

Q: What does the source list for `CCOC(=O)NC(Nc1ncccn1)(C(=O)OCC)C(F)(F)F` (stereo not given)?
A: TGI (MCF7 breast): > 100 µM; TGI (NCI-H522 lung): > 100 µM; TGI (M14 melanoma): > 100 µM; TGI (HOP-92 NSCLC): > 100 µM; TGI (RXF 393 renal): > 100 µM; TGI (SR leukemia): > 100 µM; TGI (ACHN renal): > 100 µM

Q: Which TGI (MCF7 breast) does the source give for `N#CN=[N+]([O-])c1ccc(C(=O)O)cc1` here?
A: The TGI was 38.8 µM.

Q: What about the TGI (NCI-H522 lung) of the same compound?
A: Its TGI is 40.7 µM.

Q: What about the TGI (M14 melanoma) of the same compound?
A: The TGI was 34 µM.

Q: What about the TGI (HOP-92 NSCLC) of the same compound?
A: Its TGI is 40.4 µM.

Q: What about the TGI (RXF 393 renal) of the same compound?
A: The TGI was 30.1 µM.

Q: And the TGI (HOP-62 NSCLC)?
A: The TGI was 30.7 µM.

Q: And the TGI (ACHN renal)?
A: Its TGI is 32.7 µM.

Q: Which results are given for `Cc1cc(C)n(-c2nsc3ccccc23)n1`?
A: TGI (M14 melanoma): > 100 µM; TGI (SNB-78 CNS): > 100 µM; TGI (HOP-92 NSCLC): > 100 µM; TGI (RXF 393 renal): > 100 µM; TGI (SR leukemia): > 100 µM; TGI (HOP-62 NSCLC): > 100 µM; TGI (ACHN renal): > 100 µM

Q: Which results are given for `Cc1ccc2c(c1)C(=O)N(N(C)C)CC(=O)N2`?
A: TGI (MALME-3M melanoma): > 100 µM; TGI (NCI-H522 lung): > 100 µM; TGI (M14 melanoma): > 100 µM; TGI (SNB-78 CNS): > 100 µM; TGI (A498 renal): > 100 µM; TGI (HOP-92 NSCLC): > 100 µM; TGI (DLD-1 colon): > 100 µM; TGI (SR leukemia): > 100 µM; TGI (HOP-62 NSCLC): > 100 µM; TGI (ACHN renal): > 100 µM

Q: What does the source list for `Fc1ccc(C2CC(c3cccc(Nc4ccncc4)c3)=NN2c2ccc(Cl)cc2)cc1` (stereo not given)?
A: GI50 (MCF7 breast): 1.75 µM; TGI (MCF7 breast): 3.5 µM; GI50 (MALME-3M melanoma): 1.59 µM; TGI (MALME-3M melanoma): 3.1 µM; GI50 (NCI-H522 lung): 1.78 µM; TGI (NCI-H522 lung): 3.68 µM; GI50 (M14 melanoma): 1.77 µM; TGI (M14 melanoma): 3.38 µM; GI50 (A498 renal): 1.15 µM; TGI (A498 renal): 4.62 µM; GI50 (RXF 393 renal): 1.63 µM; TGI (RXF 393 renal): 3 µM; GI50 (SR leukemia): 1.79 µM; TGI (SR leukemia): 4.23 µM; GI50 (ACHN renal): 1.61 µM; TGI (ACHN renal): 2.96 µM

Q: Which results are given for `CSc1nc(NC2OCC(O)C(O)C2O)c(N)c(=O)[nH]1` (stereo not given)?
A: TGI (MCF7 breast): > 100 µM; TGI (MALME-3M melanoma): > 100 µM; TGI (NCI-H522 lung): > 100 µM; TGI (SNB-78 CNS): > 100 µM; TGI (A498 renal): > 100 µM; TGI (HOP-92 NSCLC): > 100 µM; TGI (DLD-1 colon): > 100 µM; TGI (RXF 393 renal): > 100 µM; TGI (HOP-62 NSCLC): > 100 µM

Q: Which results are given for `Cc1cc2c(cc1C)OC(=O)CC2`?
A: TGI (MCF7 breast): > 100 µM; TGI (MALME-3M melanoma): > 100 µM; TGI (NCI-H522 lung): > 100 µM; TGI (M14 melanoma): > 100 µM; TGI (A498 renal): > 100 µM; TGI (HOP-92 NSCLC): > 100 µM; TGI (RXF 393 renal): > 100 µM; TGI (SR leukemia): > 100 µM; TGI (HOP-62 NSCLC): > 100 µM; TGI (ACHN renal): > 100 µM
